Assay results from US20230017948A1, “COMBINATION THERAPY USING FABP5 INHIBITORS WITH TAXANES FOR TREATMENT OF CANCER” (The Research Foundation for The State University of New York, priority 2019, published 2023).

What was measured:
DU-145 cells = assay: MTT cytotoxicity assay, single drugs and combinations, DU-145 cells; assay type: cell-based; conditions: Homo sapiens; DU-145, MTT, 72-hour incubation
22Rv1 cells = assay: cells; conditions: Homo sapiens, 22Rv1, 72 h, read-out: cytotoxicity IC50
PC3 cells = assay: MTT cytotoxicity assay, single drugs and combinations, PC3 cells; assay type: cell-based; conditions: Homo sapiens, PC-3, 72-hour incubation
[1] = system: PC3 cells implanted subcutaneously; assay: Subcutaneous PC3 tumor growth in male BALB/c nude mice; assay type: in vivo; conditions: ip
Procedure: Male BALB/c nude mice (BALB/cOlaHsd-Foxnlnu, 20-30 g, 7-8 weeks old) (Envigo RMS Inc, Indianapolis, Ind.) were used for all experiments. Animals were housed individually at room temperature and were kept on a 12:12-hour light:dark cycle with access to food and water ad libitum. Euthanasia was carried out utilizing CO2 asphyxiation. All of the experiments were approved by the Stony Brook University Animal Care and Use Committee.
Male BALB/c nude mice were subcutaneously inoculated with PC3 cells. Briefly, cells (1×10^6 per mouse) were resuspended in 100 μL of a 1:1 mixture of phosphate-buffered saline (PBS):Matrigel (Corning Inc, Corning, N.Y.) and implanted into a single dorsal lateral flank using a 21G needle. Tumor length (L) and tumor width (W) were measured twice weekly using digital calipers, and tumor volume (V) was calculated as (V═[L×W2]/2). When tumor volume reached approximately 150 to 200 mm3, animals were grouped and drug administration commenced. Humane endpoints for all animals were as follows: animals carrying a tumor burden greater than 35 days, body weight (which was recorded twice weekly) decreasing by greater than 15%, tumor ulceration, paralysis, failure to groom, bleeding, respiratory distress, and/or tumor volume reaching 1500 mm3.
SBFI-102, SBFI-103, and docetaxel were each reconstituted in a 1:1:8 vehicle consisting of dimethyl sulfoxide (DMSO) (Thermo Fisher Scientific, Hampton, N.H.):Cremaphor-EL (Sigma-Aldrich):saline. SBFI-102 and SBFI-103 were administered via intraperitoneal injection (ip) using a 27G needle at 20 mg/kg daily. Docetaxel was administered i.p. at 5 or 10 mg/kg weekly. All drugs were administered in a volume of 10 μL/g body weight.
All data were obtained from at least three independent experiments and then values described in each figure legend depict each independent trial or animal. Data for all in vivo experiments were analyzed using a one-way analysis of variance with the Tukey post hoc test (GraphPad Prism, version 8.0.2). Data are represented as means±SEM and P<0.05 was considered statistically significant. […]

[2] = MTT cytotoxicity assay, RWPE-1 cells (normal prostate cell-line); assay type: cell-based; conditions: human, RWPE-1, MTT, 72-hour incubation
[3] = MTT cytotoxicity assay, WI-38 cells (normal lung cell-line); assay type: cell-based; conditions: human, WI-38, MTT, 72-hour incubation
PCa cell = conditions: in vitro and in vivo (Al-Jameel, W. et al. 2017); cited from earlier work
[4] = 20 mg/kg, once daily, from day 15

Row | SMILES | IC50 (DU-145 cells) | IC50 (22Rv1 cells) | IC50 (PC3 cells) | tumor growth [1, 4] | IC50 at 72 h [2] | IC50 at 72 h [3] | effect on PCa cell growth, migration, invasion, tumor formation and metastasis (PCa cell) | tumor growth ([1]; docetaxel 10 mg/kg, once weekly)
1 | CO[C@H]1C(=O)[C@]2(C)[C@@H](OC)C[C@H]3OC[C@@]3(OC(C)=O)[C@H]2[C@H](OC(=O)c2ccccc2)[C@]2(O)C[C@H](OC(=O)[C@H](O)[C@@H](NC(=O)OC(C)(C)C)c3ccccc3)C(C)=C1C2(C)C [cabazitaxel, reference compound] | 0.0002 µM | 0.0003 µM | 0.0016 µM | – | – | – | – | –
2 | COc1ccccc1C1[C@H](C(=O)O)[C@H](c2ccccc2OC)[C@H]1C(=O)OCC1c2ccccc2-c2ccccc21 (some centres unmarked) [SBFI-103] | 3.3 µM | 3.1 µM | 6.3 µM | significantly reduced tumor growth | 20.6 µM | 29.6 µM | – | –
3 | O=C(O)C1[C@H](c2ccccc2)C(C(=O)Oc2cccc3ccccc23)[C@H]1c1ccccc1 (some centres unmarked) [SBFI-26] | – | – | – | – | – | – | suppresses PCa cell growth, migration, invasion, tumor formation, and metastasis | –
4 | CC(=O)O[C@@]12CO[C@@H]1C[C@H](O)[C@@]1(C)C(=O)[C@H](O)C3=C(C)[C@@H](OC(=O)[C@H](O)[C@@H](NC(=O)OC(C)(C)C)c4ccccc4)C[C@@](O)([C@@H](OC(=O)c4ccccc4)[C@H]21)C3(C)C [docetaxel, reference compound] | 0.0008 µM | 0.0003 µM | 0.0019 µM | – | – | – | – | near complete inhibition of growth
5 | COc1ccccc1C1[C@H](C(=O)O)[C@H](c2ccccc2OC)[C@H]1C(=O)Oc1cccc2ccccc12 (some centres unmarked) [SBFI-102] | 8.9 µM | 10.1 µM | 11.4 µM | significantly reduced tumor growth | 26 µM | 29.4 µM | – | –
